Columns and labels:
[1] = molecular target: T1, D(2) dopamine receptor (Homo sapiens, UniProt P14416); test: biochemical; format: cell-based, CHO
Description: Displacement of [3H]spiperone from human dopamine D2L receptor expressed in CHO cell membranes by radioligand competition binding assay

[2] = molecular target: 5-hydroxytryptamine receptor 2A (Homo sapiens, UniProt P28223); test: biochemical; format: cell-based, HEK293
Description: Displacement of [3H]ketanserin from human 5-HT2A receptor expressed in HEK293 cell membranes by radioligand competition binding assay

[3] = molecular target: D(1A) dopamine receptor (Homo sapiens, UniProt P21728); test: biochemical; format: cell-based, CHO
Description: Displacement of [3H]SCH23990 from human dopamine D1 receptor expressed in CHO cell membranes by radioligand competition binding assay

[4] = molecular target: T1, D(2) dopamine receptor; test: biochemical; format: cell-based, CHO; remark: listed apart in the source
Description: Displacement of [3H]spiperone from human dopamine D2S receptor expressed in CHO cell membranes by radioligand competition binding assay

[5] = molecular target: D(3) dopamine receptor (Homo sapiens, UniProt P35462); test: biochemical; format: cell-based, CHO
Description: Displacement of [3H]spiperone from human dopamine D3 receptor expressed in CHO cell membranes by radioligand competition binding assay

[6] = molecular target: T2, D(4) dopamine receptor (Homo sapiens, UniProt P21917); test: biochemical; format: cell-based, CHO
T2 sequence (P21917 whole entry): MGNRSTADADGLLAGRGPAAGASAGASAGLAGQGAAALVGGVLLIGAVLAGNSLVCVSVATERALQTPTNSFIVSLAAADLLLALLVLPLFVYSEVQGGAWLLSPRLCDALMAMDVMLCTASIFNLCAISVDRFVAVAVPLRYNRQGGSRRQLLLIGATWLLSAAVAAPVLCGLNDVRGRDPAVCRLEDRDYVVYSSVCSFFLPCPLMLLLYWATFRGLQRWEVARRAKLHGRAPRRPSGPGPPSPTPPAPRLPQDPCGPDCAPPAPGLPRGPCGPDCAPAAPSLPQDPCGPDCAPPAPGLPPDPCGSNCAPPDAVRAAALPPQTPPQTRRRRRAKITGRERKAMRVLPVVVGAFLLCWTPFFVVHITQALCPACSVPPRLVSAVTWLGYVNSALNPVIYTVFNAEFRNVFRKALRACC
Description: Displacement of [3H]spiperone from human dopamine D4.4 receptor expressed in CHO cell membranes by radioligand competition binding assay

[7] = molecular target: T1, D(2) dopamine receptor; format: functional, cell-based, HEK293
[8] = molecular target: T1, D(2) dopamine receptor; format: cell-based; settings: hek293
Description: Activity at pro-link-tagged D2S-ARMS2PK2 (unknown origin) expressed in HEK293 cells by beta-arrestin-2 recruitment assay

[9] = molecular target: T1, D(2) dopamine receptor
Description: Activity at dopamine D2S receptor (unknown origin) expressed in HEK293 cell membranes co-expressing Galpha protein subunit Galphai2 by [35S]GTPgammaS binding assay

Sequence of 5-hydroxytryptamine receptor 2A (P28223 whole entry): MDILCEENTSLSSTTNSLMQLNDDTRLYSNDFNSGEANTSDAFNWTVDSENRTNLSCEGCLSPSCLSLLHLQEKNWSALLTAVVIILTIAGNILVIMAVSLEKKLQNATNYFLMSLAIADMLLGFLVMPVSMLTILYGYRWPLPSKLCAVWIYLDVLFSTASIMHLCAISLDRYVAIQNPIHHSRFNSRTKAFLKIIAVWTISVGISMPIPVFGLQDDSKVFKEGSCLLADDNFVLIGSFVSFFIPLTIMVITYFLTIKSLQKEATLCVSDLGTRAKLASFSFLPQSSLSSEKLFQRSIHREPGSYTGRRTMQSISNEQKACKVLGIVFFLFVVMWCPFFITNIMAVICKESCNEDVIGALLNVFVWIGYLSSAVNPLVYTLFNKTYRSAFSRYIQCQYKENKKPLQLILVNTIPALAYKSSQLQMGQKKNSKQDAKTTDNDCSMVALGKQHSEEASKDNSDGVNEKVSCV
Sequence of D(1A) dopamine receptor (P21728 whole entry): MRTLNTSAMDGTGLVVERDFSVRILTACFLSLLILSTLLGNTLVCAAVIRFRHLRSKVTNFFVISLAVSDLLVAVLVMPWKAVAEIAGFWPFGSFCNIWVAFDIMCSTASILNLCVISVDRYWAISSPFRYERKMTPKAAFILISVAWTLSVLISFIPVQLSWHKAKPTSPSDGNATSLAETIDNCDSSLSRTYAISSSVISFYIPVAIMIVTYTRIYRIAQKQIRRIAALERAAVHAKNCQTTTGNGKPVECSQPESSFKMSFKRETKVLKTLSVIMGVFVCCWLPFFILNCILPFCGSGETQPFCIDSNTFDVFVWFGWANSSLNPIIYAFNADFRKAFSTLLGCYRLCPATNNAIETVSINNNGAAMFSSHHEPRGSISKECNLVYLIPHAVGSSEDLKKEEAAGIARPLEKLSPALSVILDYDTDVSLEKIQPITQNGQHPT
T1 sequence (P14416 whole entry): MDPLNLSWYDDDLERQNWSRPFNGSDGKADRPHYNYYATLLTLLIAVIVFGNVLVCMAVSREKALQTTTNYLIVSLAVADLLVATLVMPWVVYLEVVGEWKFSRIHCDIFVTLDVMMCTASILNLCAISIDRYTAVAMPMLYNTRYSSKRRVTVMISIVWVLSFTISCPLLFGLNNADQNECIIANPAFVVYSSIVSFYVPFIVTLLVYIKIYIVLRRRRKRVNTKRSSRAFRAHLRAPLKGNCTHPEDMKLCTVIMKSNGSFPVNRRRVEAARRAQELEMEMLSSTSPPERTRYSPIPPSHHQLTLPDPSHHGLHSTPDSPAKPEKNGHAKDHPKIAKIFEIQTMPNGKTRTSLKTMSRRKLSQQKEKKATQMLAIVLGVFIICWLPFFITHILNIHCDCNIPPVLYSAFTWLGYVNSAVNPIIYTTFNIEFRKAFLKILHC
Sequence of D(3) dopamine receptor (P35462 whole entry): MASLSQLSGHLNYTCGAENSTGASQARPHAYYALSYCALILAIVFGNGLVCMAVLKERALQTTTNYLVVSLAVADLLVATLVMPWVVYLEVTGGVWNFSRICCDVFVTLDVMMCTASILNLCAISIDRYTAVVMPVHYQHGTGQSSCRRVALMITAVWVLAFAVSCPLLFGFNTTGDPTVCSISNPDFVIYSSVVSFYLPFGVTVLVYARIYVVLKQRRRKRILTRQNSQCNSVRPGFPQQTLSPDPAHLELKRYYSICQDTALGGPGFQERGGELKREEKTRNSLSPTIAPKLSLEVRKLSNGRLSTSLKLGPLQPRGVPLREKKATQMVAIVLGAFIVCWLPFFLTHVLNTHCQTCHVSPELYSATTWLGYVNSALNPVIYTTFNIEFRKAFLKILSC

| Structure (SMILES) | Ki [1] [nM] | Ki [2] [nM] | Ki [3] [nM] | Ki [4] [nM] | Ki [5] [nM] | Ki [6] [nM] | EC50 [7] [nM] | EC50 [8] | EC50 [9] [nM] |
| --- | --- | --- | --- | --- | --- | --- | --- | --- | --- |
| COc1ccccc1N1CCN(CCCCNC(=O)c2nnn(Cc3ccccc3Br)c2C)CC1 | 17 | 150 | – | – | – | – | – | – | – |
| COc1ccccc1N1CCN(CCCCNC(=O)c2nnn(Cc3ccccc3)c2C)CC1 | 35 | 620 | – | – | – | – | – | – | – |
| COc1ccccc1N1CCN(CCCNC(=O)c2cc3ccccn3n2)CC1 | – | 560 | – | – | – | – | – | – | – |
| COc1ccccc1N1CCN(CCc2cn(-c3ccn4ncc(C=O)c4c3)nn2)CC1 | 18 | 89 | 620 | 9.4 | 8.5 | 98 | 550 | Not Active | 4370 |
| COc1ccccc1N1CCN(CCCCCNC(=O)c2cc3ccccn3n2)CC1 | – | 220 | – | – | – | – | – | – | – |
| COc1ccccc1N1CCN(CCNC(=O)c2cnn3ccccc23)CC1 | – | 580 | – | – | – | – | – | – | – |
| COc1ccc(Cn2nnc(C(=O)NCCCCCN3CCN(c4ccccc4OC)CC3)c2C)cc1 | 2.7 | 93 | – | – | – | – | – | – | – |
| COc1ccccc1N1CCN(CCCCCNC(=O)c2cnn3ccccc23)CC1 | – | 130 | – | – | – | – | – | – | – |
| CCCc1c(C(=O)NCCCCN2CCN(c3ccccc3OC)CC2)nnn1Cc1ccccc1Br | 3 | 44 | – | – | – | – | – | – | – |
| COc1ccccc1N1CCN(CCCCCNC(=O)c2nnn(Cc3ccccc3)c2C)CC1 | 2.5 | 140 | – | – | – | – | – | – | – |
| O=Cc1cnn2ccc(-n3cc(CCN4CCN(c5cccc(Cl)c5Cl)CC4)nn3)cc12 | 11 | 50 | 160 | 8 | 32 | 3000 | 200 | Not Active | 3550 |
| COc1ccc(Cn2nnc(C(=O)NCCCCN3CCN(c4ccccc4OC)CC3)c2C)cc1 | – | 140 | – | – | – | – | – | – | – |
| COc1ccccc1N1CCN(CCCCCNC(=O)c2nnn(Cc3ccccc3Br)c2C)CC1 | 0.58 | 41 | – | – | – | – | – | – | – |
| CCCc1c(C(=O)NCCCCCN2CCN(c3ccccc3OC)CC2)nnn1Cc1ccccc1Br | 0.91 | 62 | – | – | – | – | – | – | – |
| CCCc1c(C(=O)NCCCCN2CCN(c3ccccc3OC)CC2)nnn1Cc1ccccc1 | 6.4 | 110 | – | – | – | – | – | – | – |
| COc1ccccc1N1CCN(CCCc2cn(-c3ccn4nccc4c3)nn2)CC1 | 140 | 84 | 1700 | 81 | 77 | 37 | 977 | Not Active | – |

Compounds with a lower Ki [2], results first:

| Ki [1] [nM] | Ki [2] [nM] | Ki [3] [nM] | Ki [4] [nM] | Ki [5] [nM] | Ki [6] [nM] | EC50 [7] [nM] | EC50 [8] | EC50 [9] [nM] | Structure (SMILES) |
| --- | --- | --- | --- | --- | --- | --- | --- | --- | --- |
| 110 | 15 | 1500 | 51 | 4.4 | 1400 | 692 | Not Active | 1860 | O=Cc1cnn2ccc(-n3cc(CCCCN4CCN(c5cccc(Cl)c5Cl)CC4)nn3)cc12 |
| 1.5 | 3.2 | – | – | – | – | – | – | – | COc1ccc(Cn2nnc(C(=O)NCCCCCN3CCN(c4cccc(Cl)c4Cl)CC3)c2C)cc1 |
| 7.1 | 29 | – | – | – | – | – | – | – | CCCc1c(C(=O)NCCCCN2CCN(c3ccccc3OC)CC2)nnn1Cc1ccc(OC)cc1 |
| 6.4 | 2.5 | – | – | – | – | – | – | – | CCCc1c(C(=O)NCCCCN2CCN(c3cccc(Cl)c3Cl)CC2)nnn1Cc1ccccc1 |
| 130 | 5.3 | 110 | 54 | 8.5 | 42 | 1120 | Not Active | – | Clc1cccc(N2CCN(CCCc3cn(-c4ccn5nccc5c4)nn3)CC2)c1Cl |
| 23 | 0.64 | 110 | 7.3 | 0.31 | 76 | 741 | Not Active | – | Clc1cccc(N2CCN(CCCCc3cn(-c4ccn5nccc5c4)nn3)CC2)c1Cl |
| 6.7 | 6.9 | 210 | 3.8 | 12 | 130 | 191 | Not Active | 955 | O=Cc1cnn2ccc(-n3cc(CCCN4CCN(c5cccc(Cl)c5Cl)CC4)nn3)cc12 |
| 14 | 7.4 | – | – | – | – | – | – | – | Cc1c(C(=O)NCCCCN2CCN(c3cccc(Cl)c3Cl)CC2)nnn1Cc1ccccc1 |
| – | 31 | – | – | – | – | – | – | – | O=C(NCCCCN1CCN(c2cccc(Cl)c2Cl)CC1)c1cc2ccccc2[nH]1 |
| 22 | 7.1 | 120 | 10 | 2.2 | 180 | 479 | Not Active | 1100 | Clc1cccc(N2CCN(CCc3cn(-c4ccn5nccc5c4)nn3)CC2)c1Cl |
